The record followed here is patent US12281149B2, “Modulators of G-protein coupled receptors” (priority 2021, dated 2025).

In general, Emax refers to the maximal effect, on the per cent scale that the assay sets.

One test deals with GLP-1 receptor (Homo sapiens, UniProt P43220). Description: HitHunter cAMP assay, GLP-1 receptor. The test is classed as cell-based. As to conditions: read-out: Emax GLP-1R. (cAMP levels reflect the balance of adenylyl cyclase and phosphodiesterase activity.)
In another test the target is T1, GIP receptor (Homo sapiens, UniProt P48546).
T1 sequence (P48546 22-466): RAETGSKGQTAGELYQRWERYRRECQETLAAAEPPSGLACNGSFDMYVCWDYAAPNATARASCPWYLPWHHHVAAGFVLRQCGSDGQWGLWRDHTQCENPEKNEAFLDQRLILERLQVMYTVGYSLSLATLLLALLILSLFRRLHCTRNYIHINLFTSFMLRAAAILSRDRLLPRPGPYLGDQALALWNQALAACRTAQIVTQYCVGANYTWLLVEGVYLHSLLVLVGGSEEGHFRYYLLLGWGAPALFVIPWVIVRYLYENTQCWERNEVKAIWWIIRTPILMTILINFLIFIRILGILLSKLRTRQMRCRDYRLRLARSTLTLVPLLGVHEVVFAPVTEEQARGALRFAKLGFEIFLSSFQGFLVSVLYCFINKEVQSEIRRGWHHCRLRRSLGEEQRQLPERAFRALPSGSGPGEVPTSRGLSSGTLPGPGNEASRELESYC
Put plainly: HitHunter cAMP assay, GIP receptor. The test is classed as cell-based. To be noted: read-out: Emax GIP-1R.

Where [1] appears, read: CHO cells, cAMP, normalized to maximum signal from GLP-1 (high) and DMSO (low).
Where [2] appears, read: CHO cells, cAMP, normalized to maximum signal from GIP (high) and DMSO (low).

Each structure is given as a SMILES string. Like-named read-outs stand apart in the source and are kept apart here. *1 amine or outer side, *2 acyl side, *3 side chain or, on linkers, in order; H or OH if unused. Where a SMILES comes first, the peptide text is derived from it. Side-chain parts run from the residue outwards. [ ]: non-standard residue; d: D form. The star is where a group is joined. C20 diacid = O=C(O)CCCCCCCCCCCCCCCCCCC(=O)*; γGlu = O=C(O)[C@H](CCC(=O)[*:2])N[*:1]; X60 = O=C(C1(c2cccnc2)CCCC1)*; X83 = Cc1ccn(C(C)(C)C(=O)*)n1; X24 = O=C(C1(c2cccnc2)CCC1)*; AEEA = NCCOCCOCC(=O)O; Aib = CC(C)(N)C(=O)O; CO = O=C([*:1])[*:2]; X12 = Fc1cccc(N*)c1; X67 = Cc1cccc(N*)c1; GABA = NCCCC(=O)O; βAla = NCCC(=O)O

GLP-1 receptor, sequence (P43220 24-463): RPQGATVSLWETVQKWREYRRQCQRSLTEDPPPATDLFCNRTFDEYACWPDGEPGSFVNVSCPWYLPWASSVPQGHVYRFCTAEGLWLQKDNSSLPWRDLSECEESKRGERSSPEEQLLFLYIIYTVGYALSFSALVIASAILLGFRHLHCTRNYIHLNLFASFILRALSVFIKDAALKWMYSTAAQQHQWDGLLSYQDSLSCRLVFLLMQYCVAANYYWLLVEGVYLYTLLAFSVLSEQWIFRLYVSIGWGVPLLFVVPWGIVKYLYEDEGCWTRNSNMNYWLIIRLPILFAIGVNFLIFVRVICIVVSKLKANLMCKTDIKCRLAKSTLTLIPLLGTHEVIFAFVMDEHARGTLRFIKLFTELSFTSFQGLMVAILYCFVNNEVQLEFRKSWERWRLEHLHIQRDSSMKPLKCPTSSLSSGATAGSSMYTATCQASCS

On to `CC[C@H](C)[C@H](NC(=O)[C@H](CC(C)C)NC(=O)[C@H](Cc1c[nH]c2ccccc12)NC(=O)[C@H](CCC(N)=O)NC(=O)[C@@H](NC(=O)[C@H](Cc1ccccc1)NC(=O)[C@H](C)NC(=O)[C@H](CCCCNC(=O)COCCOCCNC(=O)COCCOCCNC(=O)CC[C@H](NC(=O)CCCCCCCCCCCCCCCCCCC(=O)O)C(=O)O)NC(=O)[C@H](CCC(N)=O)NC(=O)[C@H](C)NC(=O)[C@@H](NC(=O)[C@H](CCCCN)NC(=O)[C@H](CC(=O)O)NC(=O)[C@H](CC(C)C)NC(=O)C(C)(C)NC(=O)[C@@H](NC(=O)[C@H](CO)NC(=O)[C@H](Cc1ccc(O)cc1)NC(=O)[C@H](CC(=O)O)NC(=O)[C@H](CO)NC(=O)[C@@H](NC(=O)[C@H](Cc1ccccc1)NC(=O)[C@@H](NC(=O)CNC(=O)[C@H](CCC(=O)O)NC(=O)CCCNC(=O)C1(c2cccnc2)CCC1)[C@@H](C)O)[C@@H](C)O)[C@@H](C)CC)[C@@H](C)CC)C(C)C)C(=O)N[C@@H](C)C(=O)NCC(=O)NCC(=O)N1CCC[C@H]1C(=O)N[C@@H](CO)C(=O)N[C@@H](CO)C(=O)NCC(=O)N[C@@H](C)C(=O)N1CCC[C@H]1C(=O)N1CCC[C@H]1C(=O)N1CCC[C@H]1C(=O)N[C@@H](CO)C(N)=O` [Compound 251] ({X24-GABA}-EGTFTSDYSI[Aib]LDKIAQK([AEEA-AEEA-γGlu-C20 diacid])AFVQWLIAGGPSSGAPPPS-NH2; C-terminus assumed), for which the Emax at GLP-1 receptor (setting [1]) turned out to be 91%; on GIP receptor (setting [2]) it was 92%.

In the case of `CC[C@H](C)[C@H](NC(=O)[C@H](CC(C)C)NC(=O)[C@H](Cc1c[nH]c2ccccc12)NC(=O)[C@H](CCC(N)=O)NC(=O)[C@@H](NC(=O)[C@H](Cc1ccccc1)NC(=O)[C@H](C)NC(=O)[C@H](CCCCNC(=O)COCCOCCNC(=O)COCCOCCNC(=O)CC[C@H](NC(=O)CCCCCCCCCCCCCCCCCCC(=O)O)C(=O)O)NC(=O)[C@H](CCC(N)=O)NC(=O)[C@H](C)NC(=O)[C@@H](NC(=O)[C@H](CCCNC(=N)N)NC(=O)[C@H](CC(=O)O)NC(=O)[C@H](CC(C)C)NC(=O)C(C)(C)NC(=O)[C@@H](NC(=O)[C@H](CO)NC(=O)[C@H](Cc1ccc(O)cc1)NC(=O)[C@H](CC(=O)O)NC(=O)[C@H](CO)NC(=O)[C@@H](NC(=O)[C@H](Cc1ccccc1)NC(=O)[C@@H](NC(=O)CNC(=O)[C@H](CCC(=O)O)NC(=O)CCNC(=O)C1(c2cccnc2)CCCC1)[C@@H](C)O)[C@@H](C)O)[C@@H](C)CC)[C@@H](C)CC)C(C)C)C(=O)N[C@@H](C)C(=O)NCC(=O)NCC(=O)N1CCC[C@H]1C(=O)N[C@@H](CO)C(=O)N[C@@H](CO)C(=O)NCC(=O)N[C@@H](C)C(=O)N1CCC[C@H]1C(=O)N1CCC[C@H]1C(=O)N1CCC[C@H]1C(=O)N[C@@H](CO)C(N)=O` [Compound 243] ({X60-βAla}-EGTFTSDYSI[Aib]LDRIAQK([AEEA-AEEA-γGlu-C20 diacid])AFVQWLIAGGPSSGAPPPS-NH2; C-terminus assumed), the values for the maximal response (Emax) at GLP-1 receptor (setting [1]) and at GIP receptor (setting [2]) were 109% and 110%, respectively.

Consider `CC[C@H](C)[C@H](NC(=O)[C@H](CC(C)C)NC(=O)[C@H](Cc1c[nH]c2ccccc12)NC(=O)[C@H](CCC(N)=O)NC(=O)[C@@H](NC(=O)[C@H](Cc1ccccc1)NC(=O)[C@H](C)NC(=O)[C@H](CCCCNC(=O)COCCOCCNC(=O)COCCOCCNC(=O)CC[C@H](NC(=O)CCCCCCCCCCCCCCCCCCC(=O)O)C(=O)O)NC(=O)[C@H](CCC(N)=O)NC(=O)[C@H](C)NC(=O)[C@@H](NC(=O)[C@H](CCCCN)NC(=O)[C@H](CC(=O)O)NC(=O)[C@H](CC(C)C)NC(=O)C(C)(C)NC(=O)[C@@H](NC(=O)[C@H](CO)NC(=O)[C@H](Cc1ccc(O)cc1)NC(=O)[C@H](CC(=O)O)NC(=O)[C@H](CO)NC(=O)[C@@H](NC(=O)[C@H](Cc1ccccc1)NC(=O)[C@@H](NC(=O)CNC(=O)[C@H](CCC(=O)O)NC(=O)CCCNC(=O)CNC(=O)Nc1cccc(C)c1)[C@@H](C)O)[C@@H](C)O)[C@@H](C)CC)[C@@H](C)CC)C(C)C)C(=O)N[C@@H](C)C(=O)NCC(=O)NCC(=O)N1CCC[C@H]1C(=O)N[C@@H](CO)C(=O)N[C@@H](CO)C(=O)NCC(=O)N[C@@H](C)C(=O)N1CCC[C@H]1C(=O)N1CCC[C@H]1C(=O)N1CCC[C@H]1C(=O)N[C@@H](CO)C(N)=O` [Compound 258] ({X67-CO}-G[GABA]EGTFTSDYSI[Aib]LDKIAQK([AEEA-AEEA-γGlu-C20 diacid])AFVQWLIAGGPSSGAPPPS-NH2; C-terminus assumed), for which the Emax on GLP-1 receptor (CHO) is 100%; at GIP receptor (CHO), 101%.

For `CC[C@H](C)[C@H](NC(=O)[C@H](CC(C)C)NC(=O)[C@H](Cc1c[nH]c2ccccc12)NC(=O)[C@H](CCC(N)=O)NC(=O)[C@@H](NC(=O)[C@H](Cc1ccccc1)NC(=O)[C@H](C)NC(=O)[C@H](CCCCNC(=O)COCCOCCNC(=O)COCCOCCNC(=O)CC[C@H](NC(=O)CCCCCCCCCCCCCCCCCCC(=O)O)C(=O)O)NC(=O)[C@H](CCC(N)=O)NC(=O)[C@H](C)NC(=O)[C@@H](NC(=O)[C@H](CCCCN)NC(=O)[C@H](CC(=O)O)NC(=O)[C@H](CC(C)C)NC(=O)C(C)(C)NC(=O)[C@@H](NC(=O)[C@H](CO)NC(=O)[C@H](Cc1ccc(O)cc1)NC(=O)[C@H](CC(=O)O)NC(=O)[C@H](CO)NC(=O)[C@@H](NC(=O)[C@H](Cc1ccccc1)NC(=O)[C@@H](NC(=O)CNC(=O)[C@H](CCC(=O)O)NC(=O)CCCNC(=O)CNC(=O)Nc1cccc(F)c1)[C@@H](C)O)[C@@H](C)O)[C@@H](C)CC)[C@@H](C)CC)C(C)C)C(=O)N[C@@H](C)C(=O)NCC(=O)NCC(=O)N1CCC[C@H]1C(=O)N[C@@H](CO)C(=O)N[C@@H](CO)C(=O)NCC(=O)N[C@@H](C)C(=O)N1CCC[C@H]1C(=O)N1CCC[C@H]1C(=O)N1CCC[C@H]1C(=O)N[C@@H](CO)C(N)=O` [Compound 260] ({X12-CO}-G[GABA]EGTFTSDYSI[Aib]LDKIAQK([AEEA-AEEA-γGlu-C20 diacid])AFVQWLIAGGPSSGAPPPS-NH2; C-terminus assumed), the Emax on GLP-1 receptor (setting [1]) is 124%; on GIP receptor (setting [2]), 107%.

On to `CC[C@H](C)[C@H](NC(=O)[C@H](CC(C)C)NC(=O)[C@H](Cc1c[nH]c2ccccc12)NC(=O)[C@H](CCC(N)=O)NC(=O)[C@@H](NC(=O)[C@H](Cc1ccccc1)NC(=O)[C@H](C)NC(=O)[C@H](CCCCNC(=O)COCCOCCNC(=O)COCCOCCNC(=O)CC[C@H](NC(=O)CCCCCCCCCCCCCCCCCCC(=O)O)C(=O)O)NC(=O)[C@H](CCC(N)=O)NC(=O)[C@H](C)NC(=O)[C@@H](NC(=O)[C@H](CCCCN)NC(=O)[C@H](CC(=O)O)NC(=O)[C@H](CC(C)C)NC(=O)C(C)(C)NC(=O)[C@@H](NC(=O)[C@H](CO)NC(=O)[C@H](Cc1ccc(O)cc1)NC(=O)[C@H](CC(=O)O)NC(=O)[C@H](CO)NC(=O)[C@@H](NC(=O)[C@H](Cc1ccccc1)NC(=O)[C@@H](NC(=O)CNC(=O)[C@H](CCC(=O)O)NC(=O)CCNC(=O)C(C)(C)n1ccc(C)n1)[C@@H](C)O)[C@@H](C)O)[C@@H](C)CC)[C@@H](C)CC)C(C)C)C(=O)N[C@@H](C)C(=O)NCC(=O)NCC(=O)N1CCC[C@H]1C(=O)N[C@@H](CO)C(=O)N[C@@H](CO)C(=O)NCC(=O)N[C@@H](C)C(=O)N1CCC[C@H]1C(=O)N1CCC[C@H]1C(=O)N1CCC[C@H]1C(=O)N[C@@H](CO)C(N)=O` [Compound 253] ({X83-βAla}-EGTFTSDYSI[Aib]LDKIAQK([AEEA-AEEA-γGlu-C20 diacid])AFVQWLIAGGPSSGAPPPS-NH2; C-terminus assumed), for which the Emax on GLP-1 receptor (setting [1]) was 94%; on GIP receptor (setting [2]), 105%.
